In publication PMC11470957, “Principles of paralog-specific targeted protein degradation engaging the C-degron E3 KLHDC2” (Nature Communications, 2024):
Several values for one entry are separate records, joined by “and”; a condition that tells them apart may be missing. Equal entries are not always repeated. Entries after “also recorded” stand apart in the source; their conditions may differ.

Experiments:
[1] = tested on: SKBR3, AU565, RD, SKES1, A673 cells; assay: Cell Titer-Glo Luminescent Cell Viability assay; conditions: 24 h, read-out: IC50, cell viability
[2] = tested on: U2OS KLHDC2 KO/rescue and KO cells (proteome); assay: TMT-based total proteomics of dosed U2OS cells; conditions: 1 μM, 24 h
R56A KLHDC2^SBD = molecular target: T1, R56A KLHDC2^SBD (Homo sapiens, UniProt Q9Y2U9, R56A); assay: ITC, binary binding to R56A KLHDC2^SBD
T1 sequence (Q9Y2U9 15-361 R56A): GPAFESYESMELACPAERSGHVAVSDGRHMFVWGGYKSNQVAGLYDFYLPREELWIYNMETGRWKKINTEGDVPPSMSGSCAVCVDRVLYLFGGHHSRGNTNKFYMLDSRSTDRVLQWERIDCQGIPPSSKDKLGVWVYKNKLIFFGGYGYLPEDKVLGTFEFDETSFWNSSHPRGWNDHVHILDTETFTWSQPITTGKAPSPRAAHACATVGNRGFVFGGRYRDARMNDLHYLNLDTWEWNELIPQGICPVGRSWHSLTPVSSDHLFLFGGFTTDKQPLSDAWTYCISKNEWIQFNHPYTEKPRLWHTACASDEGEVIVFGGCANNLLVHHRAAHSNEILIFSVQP

[3] = molecular target: KLHDC2^SBD / G386E BRD4^BD2 (Homo sapiens, UniProt O60885+Q9Y2U9, G386E); assay: ITC, ternary complex KLHDC2^SBD with PROTAC-G386E BRD4^BD2
[4] = molecular target: H346A/R347A KLHDC2^SBD / BRD3^BD2 (Homo sapiens, UniProt Q15059+Q9Y2U9, H346A/R347A); assay: ITC, ternary complex H346A/R347A KLHDC2^SBD with PROTAC-BRD3^BD2
[5] = molecular target: neddylated CRL2^KLHDC2 (tetrameric KLHDC2-EloB/C) (Homo sapiens, UniProt Q15059+Q9Y2U9); assay: Ubiquitylation assay monitoring disruption of the KLHDC2-EloBC tetrameric assembly
[6] = molecular target: KLHDC2^SBD / G382E BRD2^BD2 (Homo sapiens, UniProt P25440+Q9Y2U9, G382E); assay: ITC, ternary complex KLHDC2^SBD with PROTAC-G382E BRD2^BD2
[7] = molecular target: KLHDC2^SBD / E344G BRD3^BD2 (Homo sapiens, UniProt Q15059+Q9Y2U9, E344G); assay: ITC, ternary complex KLHDC2^SBD with PROTAC-E344G BRD3^BD2
BRD2^BD2 = BRD2^BD2 (Homo sapiens, UniProt P25440); assay: ITC, binary binding to BRD2^BD2
[8] = Measurement of SJ46421 cellular concentration by LC-MS/MS; format: in vitro ADME; conditions: SKBR3, from LC-MS-MS of lysates
[9] = molecular target: K291A KLHDC2^SBD / BRD3^BD2 (Homo sapiens, UniProt Q15059+Q9Y2U9, K291A); assay: ITC, ternary complex K291A KLHDC2^SBD with PROTAC-BRD3^BD2
[10] = tested on: CUL2^KLHDC2, CUL2^KLHDC3, CUL2^KLHDC10, CUL5^KLHDC1; assay: SJ46421-dependent BRD^BD2 ubiquitylation by KLHDC-family CRLs (E3 selectivity); conditions: Figs 5a, S5a
BRD4^BD2 = BRD4^BD2 (Homo sapiens, UniProt O60885); assay: ITC, binary binding to BRD4^BD2
[11] = cell: SJ46421, syringe: R56A KLHDC2^SBD
[12] = cell: SJ46421-G386E BRD4^BD2, syringe: KLHDC2^SBD
[13] = ITC source data Fig4f, N=1, syringe H346A/R347A KLHDC2, cell SJ46421-BRD3BD2
[14] = ITC, syringe H346A/R347A KLHDC2, cell compound-BRD3BD2, N=1
[15] = cell: SJ46421-BRD3^BD2, syringe: H346A/R347A KLHDC2^SBD, n=1
[16] = cell: SJ46421-G382E BRD2^BD2, syringe: KLHDC2^SBD
[17] = cell: SJ46421-E344G BRD3^BD2, syringe: KLHDC2^SBD
[18] = cell: SJ46421, syringe: BRD2^BD2
[19] = ITC source data Fig4f, N=1, syringe K291A KLHDC2, cell SJ46421-BRD3BD2
[20] = ITC, syringe K291A KLHDC2, cell compound-BRD3BD2, N=1
[21] = cell: SJ46421-BRD3^BD2, syringe: K291A KLHDC2^SBD, n=1
[22] = ITC, syringe BRD4BD2, cell compound, Rep1, Rep2
[23] = cell: SJ46421, syringe: BRD4^BD2

H346A/R347A KLHDC2^SBD / BRD3^BD2, sequence (Q9Y2U9 15-361 H346A/R347A): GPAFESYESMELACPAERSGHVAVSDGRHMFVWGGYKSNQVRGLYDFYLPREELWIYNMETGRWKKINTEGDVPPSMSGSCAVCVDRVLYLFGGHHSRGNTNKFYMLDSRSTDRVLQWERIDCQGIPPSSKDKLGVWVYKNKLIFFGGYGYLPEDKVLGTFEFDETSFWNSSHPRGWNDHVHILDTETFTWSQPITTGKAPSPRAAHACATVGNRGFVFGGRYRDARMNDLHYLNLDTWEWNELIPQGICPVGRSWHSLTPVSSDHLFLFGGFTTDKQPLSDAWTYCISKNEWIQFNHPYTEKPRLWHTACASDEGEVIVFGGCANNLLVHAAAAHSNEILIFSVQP
H346A/R347A KLHDC2^SBD / BRD3^BD2, sequence (Q15059 306-416, stated change not applied): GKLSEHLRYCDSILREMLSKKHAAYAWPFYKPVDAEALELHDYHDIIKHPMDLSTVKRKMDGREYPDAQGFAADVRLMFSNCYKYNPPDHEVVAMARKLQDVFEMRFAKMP
KLHDC2^SBD / G386E BRD4^BD2, sequence (Q9Y2U9 15-361, other chains not shown): as the sequence (Q9Y2U9 15-361 H346A/R347A) above, with A332H, A333R counted along it
KLHDC2^SBD / E344G BRD3^BD2, sequence (Q9Y2U9 15-361): as the sequence (Q9Y2U9 15-361 H346A/R347A) above, with A332H, A333R counted along it
KLHDC2^SBD / E344G BRD3^BD2, sequence (Q15059 306-416 E344G): as the sequence (Q15059 306-416, stated change not applied) above, with E39G counted along it
KLHDC2^SBD / G382E BRD2^BD2, sequence (Q9Y2U9 15-361): as the sequence (Q9Y2U9 15-361 H346A/R347A) above, with A332H, A333R counted along it
KLHDC2^SBD / G382E BRD2^BD2, sequence (P25440 344-455 G382E): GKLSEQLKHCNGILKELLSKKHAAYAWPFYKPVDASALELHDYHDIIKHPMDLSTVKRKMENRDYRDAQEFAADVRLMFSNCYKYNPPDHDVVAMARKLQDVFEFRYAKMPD
BRD2^BD2, sequence (P25440 344-455): as the sequence (P25440 344-455 G382E) above, with E39G counted along it
K291A KLHDC2^SBD / BRD3^BD2, sequence (Q9Y2U9 15-361 K291A): as the sequence (Q9Y2U9 15-361 H346A/R347A) above, with K277A, A332H, A333R counted along it
K291A KLHDC2^SBD / BRD3^BD2, sequence (Q15059 306-416): as the sequence (Q15059 306-416, stated change not applied) above

Compound: COC(=O)CNC(=O)Cc1csc(-c2ccc3cccc(OCCN4CCN(C(=O)C[C@@H]5N=C(c6ccc(Cl)cc6)c6c(sc(C)c6C)-n6c(C)nnc65)CC4)c3c2)n1 [SJ46420]
- IC50 [1]: ~300 nM
- change of protein levels by TMT proteomics ([2]; KO/rescue U2OS cells): BRD3 was most substantially downregulated, with lesser reductions in the levels of BRD4 and BRD2
- change of protein levels by TMT proteomics ([2]; U2OS KLHDC2 KO cells): not observed

Compound: Cc1sc2c(c1C)C(c1ccc(Cl)cc1)=N[C@@H](CC(=O)N1CCN(CCOc3cccc4ccc(-c5nc(CC(=O)NCC(=O)O)cs5)cc34)CC1)c1nnc(C)n1-2 [SJ46421]
- Kd (R56A KLHDC2^SBD; ITC Kd, cell: SJ46421, syringe: R56A KLHDC2^SBD): 463 ± 15 nM
- Kd (R56A KLHDC2^SBD; Kd, Rep1/Rep2, ITC source data Fig4f, syringe R56A KLHDC2, cell SJ46421): 462 nM and 464 nM
- ITC -TΔS (R56A KLHDC2^SBD; [11]): -6.66 +/- 0.25 kcal/mol-1
- ITC N (R56A KLHDC2^SBD; [11]): 1.0
- ITC ΔG (R56A KLHDC2^SBD; [11]): -8.85 +/- 0.05 kcal/mol-1
- ITC ΔH (R56A KLHDC2^SBD; [11]): -1.82 +/- 0.05 kcal/mol-1
- cooperativity α ([3]; G386E BRD4^BD2, KLHDC2^SBD): 13 and 12.7
- Kd ([3]; Kd, Rep1/Rep2, ITC source data Fig4f, syringe KLHDC2, cell SJ46421-G386EBRD4BD2): 23.4 nM and 25.9 nM
- ITC -TΔS (ternary) [3, 12]: -1.30 +/- 0.11 kcal/mol-1
- ITC N (ternary) [3, 12]: 0.9
- ITC ΔG (ternary) [3, 12]: -10.6 +/- 0.04 kcal/mol-1
- ITC ΔH (ternary) [3, 12]: -9.05 +/- 0.37 kcal/mol-1
- Kd [4]: 50.9 nM
- cooperativity α ([4]; H346A/R347A KLHDC2^SBD, estimated from the binding affinity of SJ46421 to WT KLHDC2): 6.0
- (-)TDS, Rep1 [4, 13]: -7.83
- DG, Rep1 [4, 13]: -10.2
- DH, Rep1 [4, 13]: -2.36
- (-)TDS [4, 14]: -7.83
- DG [4, 14]: -10.2
- DH [4, 14]: -2.36
- ITC -TΔS (ternary) [4, 15]: -7.83 kcal/mol-1
- ITC N (ternary) [4, 15]: 0.9
- ITC ΔG (ternary) [4, 15]: -10.2 kcal/mol-1
- ITC ΔH (ternary) [4, 15]: -2.36 kcal/mol-1
- KLHDC2~UB level, Rep1/Rep2 ([5]; Monomer, + BRD3-SJ46421, pre-incubation 0): 0.5851 and 0.3857
- KLHDC2~UB level, Rep1/Rep2 ([5]; Tetramer, + BRD3-SJ46421, pre-incubation 0): 67.2962 and 61.2938
- KLHDC2~UB level, Rep1/Rep2 ([5]; Tetramer, + BRD3-SJ46421, pre-incubation 2): 32.2274 and 23.9384
- KLHDC2~UB level, Rep1/Rep2 ([5]; Tetramer, + BRD3-SJ46421, pre-incubation 5): 1.6168 and 2.133
- cooperativity α ([6]; G382E BRD2^BD2, KLHDC2^SBD): 3.2
- (-)TDS ([6]; ITC, syringe KLHDC2, cell compound-G382EBRD2BD2, Rep1, Rep2): 0.62 and 0.68
- Kd ([6]; Kd, Rep1/Rep2, ITC source data Fig4f, syringe KLHDC2, cell SJ46421-G382EBRD2BD2): 103 nM and 88.1 nM
- ITC -TΔS (ternary) [6, 16]: 0.65 +/- 0.07 kcal/mol-1
- ITC N (ternary) [6, 16]: 0.9
- ITC ΔG (ternary) [6, 16]: -9.80 +/- 0.02 kcal/mol-1
- ITC ΔH (ternary) [6, 16]: -10.5 +/- 0.11 kcal/mol-1
- cooperativity α ([7]; E344G BRD3^BD2, KLHDC2^SBD): 1.7
- Kd ([7]; Kd, Rep1/Rep2, ITC source data Fig4f, syringe KLHDC2, cell SJ46421-E344GBRD3BD2): 187 nM and 175 nM
- ITC -TΔS (ternary) [7, 17]: -2.23 +/- 0.12 kcal/mol-1
- ITC N (ternary) [7, 17]: 1.0
- ITC ΔG (ternary) [7, 17]: -9.42 +/- 0.08 kcal/mol-1
- ITC ΔH (ternary) [7, 17]: -7.19 +/- 0.05 kcal/mol-1
- Kd (BRD2^BD2; ITC Kd, cell: SJ46421, syringe: BRD2^BD2): 2140 ± 306 nM
- (-)TDS (BRD2^BD2; ITC, syringe BRD2BD2, cell compound, Rep1, Rep2): 2.71 and 2.54
- Kd (BRD2^BD2; Kd, Rep1/Rep2, ITC source data Fig4a, syringe BRD2BD2, cell SJ46421): 2290 nM and 1890 nM
- ITC -TΔS (BRD2^BD2; [18]): 2.63 +/- 0.12 kcal/mol-1
- ITC N (BRD2^BD2; [18]): 0.9
- ITC ΔH (BRD2^BD2; [18]): -10.5 +/- 0.45 kcal/mol-1
- cellular permeability [8]: poor cellular permeability; also recorded: poor permeability properties
- Kd [9]: 25.6 nM
- (-)TDS, Rep1 [9, 19]: -5.73
- DG, Rep1 [9, 19]: -10.6
- DH, Rep1 [9, 19]: -4.87
- (-)TDS [9, 20]: -5.73
- DG [9, 20]: -10.6
- DH [9, 20]: -4.87
- cooperativity α ([9]; K291A KLHDC2^SBD, estimated from the binding affinity of SJ46421 to WT KLHDC2): 11.9
- ITC -TΔS (ternary) [9, 21]: -5.73 kcal/mol-1
- ITC N (ternary) [9, 21]: 0.9
- ITC ΔG (ternary) [9, 21]: -10.6 kcal/mol-1
- ITC ΔH (ternary) [9, 21]: -4.87 kcal/mol-1
- SJ46421-dependent ubiquitylation by KLHDC3, KLHDC10, and KLHDC1 [10]: poor
- (-)TDS (BRD4^BD2; [22]): 1.81 and 1.64
- DH (BRD4^BD2; [22]): -9.89
- Kd (BRD4^BD2; Kd, Rep1/Rep2, ITC source data Fig4a, syringe BRD4BD2, cell SJ46421): 1080 nM and 958 nM
- ITC -TΔS (BRD4^BD2; [23]): 1.73 +/- 0.14 kcal/mol-1
- ITC N (BRD4^BD2; [23]): 0.9
